Measurements taken from patent US6503934B2, “Substituted thiadiazolesulfonamides” (Aventis Pharma Deutschland GmbH, priority 1998, dated 2003).
pIC50: −log10 of the molar value.

Test system: release of IL-1β
Assay: Inhibition of LPS-induced IL-1β release from isolated human mononuclear cells (enzyme immunoassay)
Format: cell-based
Conditions: human mononuclear cells from citrate blood, lipopolysaccharide (Salmonella abortus equi) induced, 37° C. for 20 hours, IL-1β in supernatant; seven concentrations
Method: The mononuclear cells were concentrated from freshly obtained human citrate blood by known standard processes. See, e.g., Tiku et al., J. Immunol. 136/10 (1986) 3677.
15 ml of Lymphoprep® (Molter GmbH, Heidelberg, FRG) was carefully introduced under a layer of 10 ml of freshly prepared human citrate blood and the mixture was then centrifuged at 400×g (Minifuge®, Heraeus, Hanau, FRG) at 20° C. for 40 minutes. The cell fraction, showing as a white ring in the phase boundary, was withdrawn with the aid of a syringe, diluted 1:1 (v/v) with PM-16 buffer (Serva, Heidelberg, FRG) and centrifuged again as above for 10 minutes. The […] was taken up in 10 ml of RPMI 1640 buffer (Gibco, Berlin, FRG), to which 300 mg/I of L-glutamine, 25 mmol/l of HEPES, […] of penicillin had been added beforehand. The cell suspension, comprising about 90% lymphocytes and 10% monocytes, was adjusted to about 5 million cells/ml with the aid of a cell counter (type IT, Coulter Diagnostics, Krefeld, FRG). The cell viability was checked with the aid of the known lactate dehydrogenase method before and after the inhibition experiments. No change in the viability was found here.
The synthesis and release of cellular IL-1β was induced by adding a solution of […] of lipopolysaccharide (Salmonella abortus equi, Sigma GmbH, Deisenhofen, FRG) in 0.01 ml of dimethyl sulfoxide/water (1:10, v/v) to 0.48 ml of the cell fraction described above. At the same time, a solution of the test substance in 0.01 ml was added to the cell fraction, and the mixture was left in a commercially available incubator at 37° C. for 20 hours. After the sample had been cooled to 0° C., it was centrifuged in a bench centrifuge for 1 minute and in each case 0.025 ml aliquots of the supernatant were investigated specifically for their IL-1β content with the aid of a commercially available “sandwich” enzyme immunoassay kit (Biosource, Ratingen, FRG), in accordance with the manufacturer's instructions. The control values, without addition of the test preparation, were determined and set at 100%. In particular, any influence of dimethyl sulfoxide on the IL-1β level was excluded by corresponding comparison measurements.
The concentration range was chosen here such that it comprised the ranges from 0% inhibition (that is to say without addition of the test substance) to at least 80% inhibition. The test substance concentration which led to 50% inhibition of the release of IL-1β was determined by extrapolation from the dose-effect relationship determined by graph or mathematically.
IC50 value has been shown in Table 2 as micromoles/liter for the corresponding compounds of the formula (I) according to the invention.

Row | SMILES | pIC50
1 | CN(c1ccccc1)S(=O)(=O)c1nc(-c2ccccc2)ns1 [Example 1] | 4.96
2 | O=S(=O)(c1nc(-c2ccccc2)ns1)N1CCOCC1 [Example 2] | 5.52
3 | O=S(=O)(Nc1ccc(Cl)cc1)c1nc(-c2ccccc2)ns1 [Example 3] | 4.47
4 | O=S(=O)(NC1CCCCC1)c1nc(-c2ccccc2)ns1 [Example 5] | 5.22
5 | COC(=O)[C@H](C)NS(=O)(=O)c1nc(-c2ccccc2)ns1 [Example 7] | 5.70
6 | CN1CCN(S(=O)(=O)c2nc(-c3ccccc3)ns2)CC1 [Example 8] | 5.40
7 | O=S(=O)(c1nc(-c2ccccc2)ns1)N1CCN(c2ccc(Cl)cc2)CC1 [Example 10] | 5.00
8 | C[C@H](NS(=O)(=O)c1nc(-c2ccccc2)ns1)C(=O)OCc1ccccc1 [Example 17] | 5.00
9 | O=C(O)[C@@H]1CCCN1S(=O)(=O)c1nc(-c2ccccc2)ns1 [Example 18] | 5.10
10 | CC(C)OC(=O)[C@H](C)NS(=O)(=O)c1nc(-c2ccccc2)ns1 [Example 23] | 5.22
11 | COc1ccc(-c2nsc(S(=O)(=O)N3CCN(C)CC3)n2)cc1Cl [Example 24] | 4.70

Further compounds by rising pIC50, results first:

Row | pIC50 | SMILES
12 | 4.40 | O=C(O)CNS(=O)(=O)c1nc(-c2ccccc2)ns1 [Example 19]
13 | 4.70 | O=C(O)[C@H](Cc1ccccc1)NS(=O)(=O)c1nc(-c2ccccc2)ns1 [Example 22]
14 | 4.82 | O=S(=O)(NCc1ccccc1)c1nc(-c2ccccc2)ns1 [Example 4]
15 | 4.92 | O=C(c1ccc(F)cc1)C1CCN(S(=O)(=O)c2nc(-c3ccccc3)ns2)CC1 [Example 20]
16 | 5.00 | C[C@H](NS(=O)(=O)c1nc(-c2ccccc2)ns1)C(=O)O [Example 16, (S)-2-(3-Phenyl-(1,2,4)-thiadiazole-5-sulfonylamino)propionic acid]
17 | 5.22 | O=C(O)CCNS(=O)(=O)c1nc(-c2ccccc2)ns1 [Example 21]
18 | 5.70 | O=C(O)C1CCC(CNS(=O)(=O)c2nc(-c3ccccc3)ns2)CC1 (centres unmarked) [Example 9]
19 | 5.70 | CCOC(=O)C1CCN(S(=O)(=O)c2nc(-c3ccccc3)ns2)CC1 [Example 12]
20 | 5.70 | O=C1CCN(S(=O)(=O)c2nc(-c3ccccc3)ns2)CC1 [Example 13]
21 | 5.70 | O=C(O)C1CCN(S(=O)(=O)c2nc(-c3ccccc3)ns2)CC1 [Example 14]
22 | 5.70 | CC(=O)N1CCN(S(=O)(=O)c2nc(-c3ccccc3)ns2)CC1 [Example 15]
23 | 5.70 | CN1CCN(S(=O)(=O)c2nc(-c3ccc(Cl)cc3)ns2)CC1 [Example 25]
